Results published in ChEMBL document CHEMBL4507275, “Data for DCP probe BI-2545” (2021).

Experiments:
[1] = tested on: Tyrosine-protein kinase ABL1 (Homo sapiens), P00519 [F317L]; settings: Compound concentration 1000.0 nM
[2] = tested on: Tyrosine-protein kinase ABL1 (Homo sapiens), P00519 [H396P]; settings: Compound concentration 1000.0 nM
[3] = tested on: Tyrosine-protein kinase ABL1 (Homo sapiens), P00519 [T315I]; settings: Compound concentration 1000.0 nM
[4] = tested on: ALK tyrosine kinase receptor (Homo sapiens), Q9UM73 [C1156Y]; settings: Compound concentration 1000.0 nM
[5] = biological target: Mitogen-activated protein kinase kinase kinase 6 (Homo sapiens) (UniProt O95382); settings: Compound concentration 1000.0 nM
[6] = biological target: Cyclin-dependent kinase 4 (Homo sapiens) (UniProt P11802); settings: Compound concentration 1000.0 nM
[7] = biological target: Casein kinase II subunit alpha (Homo sapiens) (UniProt P68400); settings: Compound concentration 1000.0 nM
[8] = biological target: Serine/threonine-protein kinase DCLK3 (Homo sapiens) (UniProt Q9C098); settings: Compound concentration 1000.0 nM
[9] = tested on: Epidermal growth factor receptor (Homo sapiens), P00533 [UNDEFINED MUTATION]; settings: Compound concentration 1000.0 nM
[10] = tested on: Epidermal growth factor receptor (Homo sapiens), P00533 [UNDEFINED MUTATION]; settings: Compound concentration 1000.0 nM; remark: listed apart in the source
[11] = biological target: Mitogen-activated protein kinase 6 (Homo sapiens) (UniProt Q16659); settings: Compound concentration 1000.0 nM
[12] = tested on: Fibroblast growth factor receptor 3 (Homo sapiens), P22607 [G697C]; settings: Compound concentration 1000.0 nM
[13] = tested on: Receptor-type tyrosine-protein kinase FLT3 (Homo sapiens), P36888 [R834Q]; settings: Compound concentration 1000.0 nM
[14] = biological target: Receptor-type tyrosine-protein kinase FLT3 (Homo sapiens) (UniProt P36888); settings: Compound concentration 1000.0 nM
[15] = biological target: Glycogen synthase kinase-3 beta (Homo sapiens) (UniProt P49841); settings: Compound concentration 1000.0 nM
[16] = biological target: Tyrosine-protein kinase HCK (Homo sapiens) (UniProt P08631); settings: Compound concentration 1000.0 nM
[17] = biological target: Homeodomain-interacting protein kinase 1 (Homo sapiens) (UniProt Q86Z02); settings: Compound concentration 1000.0 nM
[18] = biological target: Homeodomain-interacting protein kinase 2 (Homo sapiens) (UniProt Q9H2X6); settings: Compound concentration 1000.0 nM
[19] = biological target: Tyrosine-protein kinase JAK1 (Homo sapiens) (UniProt P23458); settings: Compound concentration 1000.0 nM
[20] = biological target: Tyrosine-protein kinase JAK2 (Homo sapiens) (UniProt O60674); settings: Compound concentration 1000.0 nM
[21] = biological target: Serine/threonine-protein kinase LATS1 (Homo sapiens) (UniProt O95835); settings: Compound concentration 1000.0 nM
[22] = biological target: Serine/threonine-protein kinase LATS2 (Homo sapiens) (UniProt Q9NRM7); settings: Compound concentration 1000.0 nM
[23] = biological target: Mitogen-activated protein kinase kinase kinase 15 (Homo sapiens) (UniProt Q6ZN16); settings: Compound concentration 1000.0 nM
[24] = biological target: Mitogen-activated protein kinase kinase kinase 2 (Homo sapiens) (UniProt Q9Y2U5); settings: Compound concentration 1000.0 nM
[25] = biological target: Dual specificity mitogen-activated protein kinase kinase 2 (Homo sapiens) (UniProt P36507); settings: Compound concentration 1000.0 nM
[26] = biological target: Dual specificity mitogen-activated protein kinase kinase 5 (Homo sapiens) (UniProt Q13163); settings: Compound concentration 1000.0 nM
[27] = biological target: Tyrosine-protein kinase Mer (Homo sapiens) (UniProt Q12866); settings: Compound concentration 1000.0 nM
[28] = biological target: Dual specificity mitogen-activated protein kinase kinase 7 (Homo sapiens) (UniProt O14733); settings: Compound concentration 1000.0 nM
[29] = biological target: Serine/threonine-protein kinase 26 (Homo sapiens) (UniProt Q9P289); settings: Compound concentration 1000.0 nM
[30] = biological target: Myosin-IIIb (Homo sapiens) (UniProt Q8WXR4); settings: Compound concentration 1000.0 nM
[31] = biological target: Mitogen-activated protein kinase 14 (Homo sapiens) (UniProt Q16539); settings: Compound concentration 1000.0 nM
[32] = biological target: Mitogen-activated protein kinase 12 (Homo sapiens) (UniProt P53778); settings: Compound concentration 1000.0 nM
[33] = biological target: Cyclin-dependent kinase 16 (Homo sapiens) (UniProt Q00536); settings: Compound concentration 1000.0 nM
[34] = biological target: Platelet-derived growth factor receptor alpha (Homo sapiens) (UniProt P16234); settings: Compound concentration 1000.0 nM
[35] = biological target: Phosphatidylinositol 4-phosphate 3-kinase C2 domain-containing subunit beta (Homo sapiens) (UniProt O00750); settings: Compound concentration 1000.0 nM
[36] = biological target: Protein kinase C epsilon type (Homo sapiens) (UniProt Q02156); settings: Compound concentration 1000.0 nM
[37] = biological target: Rho-associated protein kinase 1 (Homo sapiens) (UniProt Q13464); settings: Compound concentration 1000.0 nM
[38] = biological target: Ribosomal protein S6 kinase alpha-1 (Homo sapiens) (UniProt Q15418); settings: Compound concentration 1000.0 nM
[39] = biological target: Ribosomal protein S6 kinase alpha-6 (Homo sapiens) (UniProt Q9UK32); settings: Compound concentration 1000.0 nM
[40] = biological target: Serine/threonine-protein kinase Sgk1 (Homo sapiens) (UniProt O00141); settings: Compound concentration 1000.0 nM
[41] = biological target: Tyrosine-protein kinase Srms (Homo sapiens) (UniProt Q9H3Y6); settings: Compound concentration 1000.0 nM
[42] = biological target: Serine/threonine-protein kinase 36 (Homo sapiens) (UniProt Q9NRP7); settings: Compound concentration 1000.0 nM
[43] = biological target: Tyrosine-protein kinase Tec (Homo sapiens) (UniProt P42680); settings: Compound concentration 1000.0 nM
[44] = biological target: Serine/threonine-protein kinase 32B (Homo sapiens) (UniProt Q9NY57); settings: Compound concentration 1000.0 nM
[45] = biological target: 5-hydroxytryptamine receptor 1D (Homo sapiens) (UniProt P28221); settings: Compound concentration 10.0 uM
5-hydroxytryptamine receptor 1D (Homo sapiens), sequence (P28221 whole entry): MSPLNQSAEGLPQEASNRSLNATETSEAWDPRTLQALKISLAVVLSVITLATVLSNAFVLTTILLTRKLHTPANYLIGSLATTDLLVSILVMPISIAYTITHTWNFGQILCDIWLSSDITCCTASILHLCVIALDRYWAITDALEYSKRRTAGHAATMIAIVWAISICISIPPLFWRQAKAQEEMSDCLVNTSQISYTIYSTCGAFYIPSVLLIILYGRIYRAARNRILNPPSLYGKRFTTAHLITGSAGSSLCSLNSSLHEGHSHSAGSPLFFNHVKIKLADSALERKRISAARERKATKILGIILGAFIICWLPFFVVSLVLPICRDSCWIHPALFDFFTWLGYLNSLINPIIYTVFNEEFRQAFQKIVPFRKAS

Epidermal growth factor receptor (Homo sapiens), P00533 [UNDEFINED MUTATION], sequence (P00533 whole entry, looked up, change not shown): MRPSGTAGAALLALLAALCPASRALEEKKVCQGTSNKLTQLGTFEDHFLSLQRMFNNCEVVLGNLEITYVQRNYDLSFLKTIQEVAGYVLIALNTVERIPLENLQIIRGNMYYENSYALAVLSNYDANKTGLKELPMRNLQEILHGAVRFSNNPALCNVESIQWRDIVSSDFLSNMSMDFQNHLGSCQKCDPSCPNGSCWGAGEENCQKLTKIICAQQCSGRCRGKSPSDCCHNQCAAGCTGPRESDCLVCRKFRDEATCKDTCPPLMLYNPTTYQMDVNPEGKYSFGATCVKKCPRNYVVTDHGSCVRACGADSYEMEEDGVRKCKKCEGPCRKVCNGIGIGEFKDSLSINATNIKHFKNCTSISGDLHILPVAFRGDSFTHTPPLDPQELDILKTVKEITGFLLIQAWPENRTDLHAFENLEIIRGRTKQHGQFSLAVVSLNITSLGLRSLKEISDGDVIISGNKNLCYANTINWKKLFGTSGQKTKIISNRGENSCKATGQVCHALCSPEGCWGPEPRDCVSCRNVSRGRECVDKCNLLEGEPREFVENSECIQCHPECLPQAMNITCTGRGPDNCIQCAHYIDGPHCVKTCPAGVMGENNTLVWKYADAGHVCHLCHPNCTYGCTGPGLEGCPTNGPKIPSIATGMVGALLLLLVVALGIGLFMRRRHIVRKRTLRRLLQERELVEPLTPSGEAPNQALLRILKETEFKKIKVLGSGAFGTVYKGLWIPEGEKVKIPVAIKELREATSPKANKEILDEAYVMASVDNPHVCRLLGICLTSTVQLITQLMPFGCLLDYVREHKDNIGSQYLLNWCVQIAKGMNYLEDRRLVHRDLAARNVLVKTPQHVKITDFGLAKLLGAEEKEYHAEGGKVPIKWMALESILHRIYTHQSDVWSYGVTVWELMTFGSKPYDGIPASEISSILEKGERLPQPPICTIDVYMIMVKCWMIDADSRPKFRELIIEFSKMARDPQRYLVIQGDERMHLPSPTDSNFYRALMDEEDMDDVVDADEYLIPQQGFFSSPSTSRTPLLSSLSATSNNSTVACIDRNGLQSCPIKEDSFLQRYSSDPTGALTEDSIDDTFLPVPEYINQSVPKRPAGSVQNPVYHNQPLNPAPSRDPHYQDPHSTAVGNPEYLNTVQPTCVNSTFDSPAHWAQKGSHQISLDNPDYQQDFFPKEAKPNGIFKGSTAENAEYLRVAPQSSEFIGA
Cyclin-dependent kinase 16 (Homo sapiens), sequence (Q00536 whole entry): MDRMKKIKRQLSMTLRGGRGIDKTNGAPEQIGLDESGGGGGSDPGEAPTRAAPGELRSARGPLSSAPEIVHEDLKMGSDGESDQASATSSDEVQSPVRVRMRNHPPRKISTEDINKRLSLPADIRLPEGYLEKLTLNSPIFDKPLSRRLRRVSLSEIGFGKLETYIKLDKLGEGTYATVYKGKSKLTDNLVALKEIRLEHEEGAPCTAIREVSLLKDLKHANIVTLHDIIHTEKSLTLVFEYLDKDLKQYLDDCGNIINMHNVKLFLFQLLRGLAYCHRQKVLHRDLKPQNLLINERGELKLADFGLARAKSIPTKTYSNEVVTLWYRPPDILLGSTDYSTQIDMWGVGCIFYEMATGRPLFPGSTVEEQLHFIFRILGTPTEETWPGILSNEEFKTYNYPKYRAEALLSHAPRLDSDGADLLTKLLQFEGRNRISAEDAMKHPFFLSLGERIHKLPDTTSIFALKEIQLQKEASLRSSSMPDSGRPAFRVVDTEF
Serine/threonine-protein kinase 32B (Homo sapiens), sequence (Q9NY57 whole entry): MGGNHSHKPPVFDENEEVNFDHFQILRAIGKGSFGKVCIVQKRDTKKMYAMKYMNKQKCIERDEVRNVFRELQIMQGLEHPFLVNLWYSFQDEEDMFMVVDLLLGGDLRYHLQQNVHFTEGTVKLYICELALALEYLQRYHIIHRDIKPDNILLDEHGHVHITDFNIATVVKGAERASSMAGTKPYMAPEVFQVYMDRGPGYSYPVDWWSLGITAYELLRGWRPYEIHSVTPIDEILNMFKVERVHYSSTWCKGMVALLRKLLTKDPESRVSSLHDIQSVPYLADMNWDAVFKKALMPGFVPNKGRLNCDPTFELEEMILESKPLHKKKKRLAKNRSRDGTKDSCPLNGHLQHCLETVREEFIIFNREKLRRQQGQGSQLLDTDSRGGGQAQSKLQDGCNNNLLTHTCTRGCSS
Serine/threonine-protein kinase 36 (Homo sapiens), sequence (Q9NRP7 whole entry): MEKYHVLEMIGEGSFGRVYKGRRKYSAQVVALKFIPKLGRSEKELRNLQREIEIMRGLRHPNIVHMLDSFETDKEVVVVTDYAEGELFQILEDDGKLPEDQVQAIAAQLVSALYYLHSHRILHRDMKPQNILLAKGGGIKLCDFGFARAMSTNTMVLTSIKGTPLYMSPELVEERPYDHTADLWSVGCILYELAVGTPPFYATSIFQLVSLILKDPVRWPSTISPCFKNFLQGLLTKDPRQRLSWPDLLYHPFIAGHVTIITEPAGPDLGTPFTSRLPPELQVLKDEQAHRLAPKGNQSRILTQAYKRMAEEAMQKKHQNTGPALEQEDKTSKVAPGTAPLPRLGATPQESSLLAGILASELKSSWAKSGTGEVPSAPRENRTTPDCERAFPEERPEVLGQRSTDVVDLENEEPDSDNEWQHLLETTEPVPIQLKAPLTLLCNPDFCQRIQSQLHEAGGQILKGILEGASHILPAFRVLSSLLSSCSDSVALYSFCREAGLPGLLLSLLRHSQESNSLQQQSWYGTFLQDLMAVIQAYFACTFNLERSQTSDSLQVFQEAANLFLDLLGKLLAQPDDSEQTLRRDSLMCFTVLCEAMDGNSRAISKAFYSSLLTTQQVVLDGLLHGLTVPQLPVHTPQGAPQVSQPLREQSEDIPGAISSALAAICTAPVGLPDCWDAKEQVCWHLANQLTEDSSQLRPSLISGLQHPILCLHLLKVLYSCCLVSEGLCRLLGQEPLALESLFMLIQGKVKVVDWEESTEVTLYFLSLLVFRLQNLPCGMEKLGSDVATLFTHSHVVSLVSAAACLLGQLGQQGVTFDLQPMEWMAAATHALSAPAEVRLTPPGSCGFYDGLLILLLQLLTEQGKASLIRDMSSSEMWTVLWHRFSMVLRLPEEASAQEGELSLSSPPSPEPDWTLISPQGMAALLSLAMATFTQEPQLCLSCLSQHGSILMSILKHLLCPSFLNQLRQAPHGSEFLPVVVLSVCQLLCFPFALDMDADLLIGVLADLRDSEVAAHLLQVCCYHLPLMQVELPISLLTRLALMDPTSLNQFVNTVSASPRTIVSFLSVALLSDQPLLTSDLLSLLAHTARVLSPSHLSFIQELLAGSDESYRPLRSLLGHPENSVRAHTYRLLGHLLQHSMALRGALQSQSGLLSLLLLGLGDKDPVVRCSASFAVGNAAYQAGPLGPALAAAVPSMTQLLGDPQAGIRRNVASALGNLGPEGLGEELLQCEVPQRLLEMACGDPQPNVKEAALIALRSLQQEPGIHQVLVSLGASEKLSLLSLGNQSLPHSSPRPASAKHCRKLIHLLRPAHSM
Fibroblast growth factor receptor 3 (Homo sapiens), P22607 [G697C], sequence (P22607 whole entry G697C): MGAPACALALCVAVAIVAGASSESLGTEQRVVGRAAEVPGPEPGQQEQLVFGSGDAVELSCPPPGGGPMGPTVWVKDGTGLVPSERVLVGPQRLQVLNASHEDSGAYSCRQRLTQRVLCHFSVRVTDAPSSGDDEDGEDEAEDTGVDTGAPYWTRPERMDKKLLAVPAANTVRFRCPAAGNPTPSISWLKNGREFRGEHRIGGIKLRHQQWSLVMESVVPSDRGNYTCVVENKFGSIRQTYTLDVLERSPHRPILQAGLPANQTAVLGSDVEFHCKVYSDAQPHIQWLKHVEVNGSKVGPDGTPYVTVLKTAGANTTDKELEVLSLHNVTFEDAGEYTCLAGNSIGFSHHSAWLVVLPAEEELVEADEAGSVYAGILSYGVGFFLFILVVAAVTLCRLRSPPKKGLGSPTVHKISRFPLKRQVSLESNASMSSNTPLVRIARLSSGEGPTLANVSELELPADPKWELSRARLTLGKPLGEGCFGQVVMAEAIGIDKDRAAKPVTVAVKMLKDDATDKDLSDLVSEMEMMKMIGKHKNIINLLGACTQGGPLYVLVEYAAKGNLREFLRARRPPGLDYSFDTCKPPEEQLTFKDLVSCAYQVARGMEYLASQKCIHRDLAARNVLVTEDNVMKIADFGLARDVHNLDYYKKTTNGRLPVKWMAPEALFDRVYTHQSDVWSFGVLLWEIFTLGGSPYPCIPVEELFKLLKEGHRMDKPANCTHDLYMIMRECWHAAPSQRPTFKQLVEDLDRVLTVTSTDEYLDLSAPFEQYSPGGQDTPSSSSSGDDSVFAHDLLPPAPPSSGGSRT
Dual specificity mitogen-activated protein kinase kinase 5 (Homo sapiens), sequence (Q13163 whole entry): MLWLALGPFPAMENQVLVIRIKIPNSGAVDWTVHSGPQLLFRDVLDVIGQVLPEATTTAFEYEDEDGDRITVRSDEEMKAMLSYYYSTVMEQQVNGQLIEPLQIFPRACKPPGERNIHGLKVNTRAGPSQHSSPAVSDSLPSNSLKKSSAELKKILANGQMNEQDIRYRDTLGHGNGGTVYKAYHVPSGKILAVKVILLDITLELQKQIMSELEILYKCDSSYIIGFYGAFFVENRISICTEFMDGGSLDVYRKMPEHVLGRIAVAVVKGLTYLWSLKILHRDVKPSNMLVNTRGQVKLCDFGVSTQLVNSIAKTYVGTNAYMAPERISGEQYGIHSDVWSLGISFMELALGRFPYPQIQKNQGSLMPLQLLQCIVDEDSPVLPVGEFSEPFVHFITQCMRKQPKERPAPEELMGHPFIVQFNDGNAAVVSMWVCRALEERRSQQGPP

O=C(NC[C@@H]1[C@H]2CN(C(=O)OCc3cc(C(F)(F)F)cc(C(F)(F)F)c3)C[C@@H]12)c1ccc2[nH]nnc2c1 [BI 2545]
inactive: residual activity [1] 91% | residual activity [2] 91% | residual activity [3] 82% | residual activity [4] 94% | residual activity [5] 81% | residual activity [6] 97% | residual activity [7] 84% | residual activity [8] 100% | residual activity [9] 72% | residual activity [10] 89% | residual activity [11] 88% | residual activity [12] 92% | residual activity [13] 88% | residual activity [14] 91% | residual activity [15] 98% | residual activity [16] 100% | residual activity [17] 85% | residual activity [18] 100% | residual activity [19] 100% | residual activity [20] 100% | residual activity [21] 96% | residual activity [22] 86% | residual activity [23] 53% | residual activity [24] 80% | residual activity [25] 84% | residual activity [26] 100% | residual activity [27] 100% | residual activity [28] 95% | residual activity [29] 76% | residual activity [30] 100% | residual activity [31] 100% | residual activity [32] 100% | residual activity [33] 100% | residual activity [34] 97% | residual activity [35] 65% | residual activity [36] 100% | residual activity [37] 85% | residual activity [38] 83% | residual activity [39] 86% | residual activity [40] 100% | residual activity [41] 83% | residual activity [42] 100% | residual activity [43] 100% | residual activity [44] 100% | inhibition [45] 43.2%

Cc1nccc(COC(=O)N2C[C@@H]3[C@@H](CNC(=O)c4ccc5[nH]nnc5c4)[C@@H]3C2)n1 [BI 3017]
inactive: residual activity [1] 70% | residual activity [2] 85% | residual activity [3] 90% | residual activity [4] 76% | residual activity [5] 78% | residual activity [6] 78% | residual activity [7] 81% | residual activity [8] 100% | residual activity [9] 100% | residual activity [10] 71% | residual activity [11] 93% | residual activity [12] 97% | residual activity [13] 85% | residual activity [14] 93% | residual activity [15] 100% | residual activity [16] 99% | residual activity [17] 82% | residual activity [18] 81% | residual activity [19] 85% | residual activity [20] 93% | residual activity [21] 89% | residual activity [22] 97% | residual activity [23] 95% | residual activity [24] 100% | residual activity [25] 84% | residual activity [26] 100% | residual activity [27] 100% | residual activity [28] 100% | residual activity [29] 77% | residual activity [30] 100% | residual activity [31] 100% | residual activity [32] 79% | residual activity [33] 78% | residual activity [34] 80% | residual activity [35] 97% | residual activity [36] 100% | residual activity [37] 71% | residual activity [38] 96% | residual activity [39] 95% | residual activity [40] 100% | residual activity [41] 87% | residual activity [42] 92% | residual activity [43] 94% | residual activity [44] 97% | inhibition [45] 23%
